Results reported in PubChem BioAssay (NCI).
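A five-concentration, 48-hour dose response in 96-well plates underlies each endpoint, interpolated linearly between surrounding concentrations. GI50 = concentration required for 50% inhibition of growth. The concentration for full growth arrest is given as TGI.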

What was measured:
Experiment in all cases: growth of human tumour cells (NCI), 48 h
NCI-H460 lung = test system: NCI-H460 lung
A498 renal = test system: A498 renal
M14 melanoma = test system: M14 melanoma
MDA-MB-435 = test system: MDA-MB-435
SF-268 CNS = test system: SF-268 CNS
TK-10 renal = test system: TK-10 renal
SN12C renal = test system: SN12C renal
HL-60(TB) leukemia = test system: HL-60(TB) leukemia
MDA-MB-231 breast = test system: MDA-MB-231 breast
HOP-62 NSCLC = test system: HOP-62 NSCLC
EKVX NSCLC = test system: EKVX NSCLC
ACHN renal = test system: ACHN renal
UO-31 renal = test system: UO-31 renal
SF-295 CNS = test system: SF-295 CNS
MOLT-4 leukemia = test system: MOLT-4 leukemia
U251 CNS = test system: U251 CNS
SNB-75 CNS = test system: SNB-75 CNS
CCRF-CEM leukemia = test system: CCRF-CEM leukemia
SNB-19 CNS = test system: SNB-19 CNS
A549 NSCLC = test system: A549 NSCLC
UACC-62 melanoma = test system: UACC-62 melanoma
HS 578T breast = test system: HS 578T breast
HCT-116 colon = test system: HCT-116 colon
T-47D breast = test system: T-47D breast
CAKI-1 renal = test system: CAKI-1 renal
BT-549 breast = test system: BT-549 breast
SK-MEL-2 melanoma = test system: SK-MEL-2 melanoma
786-0 renal = test system: 786-0 renal
COLO 205 colon = test system: COLO 205 colon

## O=C(/C=C/CN1CCCCC1)Nc1cc2c(Nc3ccc(F)c(Cl)c3F)ncnc2cc1OCCOC(F)F
NCI-H460 lung
  GI50: 2010 nM
  TGI: 11000 nM
A498 renal
  GI50: 299 nM
  TGI: 2020 nM
M14 melanoma
  GI50: 2120 nM
  TGI: 6610 nM
MDA-MB-435
  GI50: 1350 nM
  TGI: 5810 nM
SF-268 CNS
  GI50: 1140 nM
  TGI: 4590 nM
TK-10 renal
  GI50: < 10 nM
  TGI: 1360 nM
SN12C renal
  GI50: 318 nM
  TGI: 5930 nM
HL-60(TB) leukemia
  GI50: 1400 nM
  TGI: 5680 nM
MDA-MB-231 breast
  GI50: 882 nM
  TGI: 4880 nM
HOP-62 NSCLC
  GI50: 1640 nM
  TGI: 7040 nM
EKVX NSCLC
  GI50: 64.6 nM
  TGI: 5220 nM
ACHN renal
  GI50: < 10 nM
  TGI: 1550 nM
UO-31 renal
  GI50: < 11.6 nM
  TGI: 5890 nM
SF-295 CNS
  GI50: 1720 nM
  TGI: 6420 nM
MOLT-4 leukemia
  GI50: 1150 nM
  TGI: 5270 nM
U251 CNS
  GI50: 1870 nM
  TGI: 9250 nM
SNB-75 CNS
  GI50: 265 nM
  TGI: 4810 nM
CCRF-CEM leukemia
  GI50: 2420 nM
  TGI: 10700 nM
SNB-19 CNS
  GI50: 1940 nM
  TGI: 13500 nM
A549 NSCLC
  GI50: 585 nM
  TGI: 9920 nM
UACC-62 melanoma
  GI50: 1630 nM
  TGI: 5110 nM
HS 578T breast
  GI50: 873 nM
  TGI: 6050 nM
HCT-116 colon
  GI50: 1310 nM
  TGI: 8430 nM
T-47D breast
  GI50: 53.5 nM
  TGI: 1370 nM
CAKI-1 renal
  GI50: < 15.1 nM
  TGI: 1440 nM
BT-549 breast
  GI50: 1970 nM
  TGI: 8620 nM
SK-MEL-2 melanoma
  GI50: 1850 nM
  TGI: 4700 nM
786-0 renal
  GI50: 781 nM
  TGI: 6380 nM
COLO 205 colon
  GI50: 1600 nM
  TGI: 4930 nM
